Laboratory results: ChEMBL document CHEMBL1146157, “Synthesis and SAR of 2-(4-fluorophenyl)-3-pyrimidin-4-ylimidazo[1,2-a]pyridine derivatives as anticoccidial agents” (Bioorg Med Chem Lett, 2006)

Legend:
[1] = tested on: Eimeria tenella; assay: Antiparasitic activity against Eimeria tenella in chicken at 25 ppm in feed assessed as percent reduction in oocyst; type: functional; design: scale not given: the % may be the effect or the level left
[2] = target: cGMP-dependent protein kinase (Eimeria tenella, UniProt Q8MMZ8); assay: Inhibition of Eimeria tenella PKG
[3] = tested on: Eimeria acervulina; assay: Antiparasitic activity against Eimeria acervulina in chicken at 25 ppm in feed assessed as percent reduction in oocyst; type: functional; design: scale not given: the % may be the effect or the level left
[4] = tested on: Eimeria tenella; assay: Antiparasitic activity against Eimeria tenella in chicken at 50 ppm in feed assessed as percent reduction in oocyst; type: functional; design: scale not given: the % may be the effect or the level left
[5] = tested on: Eimeria acervulina; assay: Antiparasitic activity against Eimeria acervulina in chicken at 50 ppm in feed assessed as percent reduction in oocyst; type: functional; design: scale not given: the % may be the effect or the level left

Chain of cGMP-dependent protein kinase (Q8MMZ8 whole entry): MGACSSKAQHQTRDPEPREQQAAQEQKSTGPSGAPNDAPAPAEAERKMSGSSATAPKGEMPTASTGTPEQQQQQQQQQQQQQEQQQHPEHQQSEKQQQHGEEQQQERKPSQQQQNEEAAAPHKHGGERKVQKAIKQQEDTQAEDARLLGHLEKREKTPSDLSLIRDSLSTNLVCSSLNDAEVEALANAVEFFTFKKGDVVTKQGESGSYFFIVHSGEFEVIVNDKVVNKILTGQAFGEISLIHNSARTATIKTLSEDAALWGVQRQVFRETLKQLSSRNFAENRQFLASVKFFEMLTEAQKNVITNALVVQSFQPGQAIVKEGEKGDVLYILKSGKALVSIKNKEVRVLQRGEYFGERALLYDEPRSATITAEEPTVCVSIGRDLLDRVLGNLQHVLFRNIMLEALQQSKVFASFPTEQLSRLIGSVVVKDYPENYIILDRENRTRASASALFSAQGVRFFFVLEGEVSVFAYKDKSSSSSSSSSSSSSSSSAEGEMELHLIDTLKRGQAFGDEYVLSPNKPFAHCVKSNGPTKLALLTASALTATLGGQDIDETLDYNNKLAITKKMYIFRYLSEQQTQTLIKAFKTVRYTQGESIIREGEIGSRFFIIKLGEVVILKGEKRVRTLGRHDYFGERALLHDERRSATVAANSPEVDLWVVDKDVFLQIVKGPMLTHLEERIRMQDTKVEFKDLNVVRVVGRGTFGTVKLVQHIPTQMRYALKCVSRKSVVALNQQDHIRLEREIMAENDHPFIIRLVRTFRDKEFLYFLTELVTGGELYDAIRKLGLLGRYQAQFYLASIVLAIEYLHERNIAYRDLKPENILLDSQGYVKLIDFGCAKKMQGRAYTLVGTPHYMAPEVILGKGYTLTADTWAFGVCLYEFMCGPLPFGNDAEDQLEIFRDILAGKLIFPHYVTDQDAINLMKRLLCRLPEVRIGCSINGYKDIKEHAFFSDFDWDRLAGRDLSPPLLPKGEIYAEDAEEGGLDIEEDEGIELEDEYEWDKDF

SMILES | Activity [1] | IC50 [2] | Activity [3] | Activity [4] | Activity [5]
C[C@H](Nc1nccc(-c2c(-c3ccc(F)cc3)nc3cc(CN(C)C)ccn23)n1)c1ccccc1 | >=80% | 0.47 nM | <50% | – | –
C[C@@H](Nc1nccc(-c2c(-c3ccc(F)cc3)nc3cc(CN(C)C)ccn23)n1)c1ccccc1 | >=80% | 0.32 nM | >=80% | – | –
CN(C)Cc1ccn2c(-c3ccnc(OCc4ccccc4)n3)c(-c3ccc(F)cc3)nc2c1 | – | 0.27 nM | – | <50% | <50%
CN(C)Cc1ccn2c(-c3ccnc(N(C)Cc4ccccc4)n3)c(-c3ccc(F)cc3)nc2c1 | <50% | 3 nM | 50% | – | –
